In ChEMBL document CHEMBL4024794 (J Med Chem, 2018):
Activity calls are given as the source filed them. No cut-off for these calls is given here.

Key:
[1] = biological target: N-lysine methyltransferase SMYD2 (Homo sapiens, UniProt Q9NRG4); experiment: Inhibition of SMYD2 (unknown origin) using [3H]-SAM as co-factor by scintillation proximity assay
[2] = biological target: T1, Nicotinamide N-methyltransferase (Homo sapiens, UniProt P40261); experiment: Inhibition of human NNMT (1 to 264 residues) expressed in Escherichia coli BL21 (DE3) using nicotinamide/SAM as substrate/co-factor measured for 20 mins by SAHH-coupled fluorescent assay
T1 sequence (P40261 whole entry): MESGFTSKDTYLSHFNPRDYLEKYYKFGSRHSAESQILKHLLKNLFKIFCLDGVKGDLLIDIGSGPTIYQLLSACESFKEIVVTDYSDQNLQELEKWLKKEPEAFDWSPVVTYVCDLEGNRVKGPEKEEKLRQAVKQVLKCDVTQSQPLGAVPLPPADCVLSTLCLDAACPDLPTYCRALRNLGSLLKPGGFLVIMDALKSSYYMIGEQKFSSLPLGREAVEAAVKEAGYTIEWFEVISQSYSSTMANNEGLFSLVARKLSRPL

[3] = biological target: Histone-lysine N-methyltransferase, H3 lysine-79 specific (Homo sapiens, UniProt Q8TEK3); experiment: Inhibition of DOT1L (unknown origin) after 1 hr by filter-based assay
[4] = biological target: T2, RNA 5'-monophosphate methyltransferase (Homo sapiens, UniProt Q7Z5W3); experiment: Inhibition of BCDIN3D (unknown origin) using [3H]-SAM as co-factor by scintillation proximity assay
T2 sequence (Q7Z5W3 whole entry): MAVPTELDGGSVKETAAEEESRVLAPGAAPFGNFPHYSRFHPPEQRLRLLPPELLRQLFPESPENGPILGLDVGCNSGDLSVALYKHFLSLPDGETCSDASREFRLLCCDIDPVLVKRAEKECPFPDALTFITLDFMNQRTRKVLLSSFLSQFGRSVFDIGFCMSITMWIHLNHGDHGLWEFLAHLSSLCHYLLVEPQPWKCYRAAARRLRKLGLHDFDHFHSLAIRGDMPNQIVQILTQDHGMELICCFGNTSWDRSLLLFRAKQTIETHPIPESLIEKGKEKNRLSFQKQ

[5] = biological target: T3, Nicotinamide N-methyltransferase (Homo sapiens) (UniProt P40261)
T3 sequence (whole entry): T1 sequence (P40261 whole entry)
Description: Binding affinity to human NNMT (1 to 264 residues) expressed in Escherichia coli BL21 (DE3) assessed as change in enthalpy by isothermal titration calorimetric method

[6] = biological target: T3, Nicotinamide N-methyltransferase (Homo sapiens); experiment: Competitive inhibition of human NNMT (1 to 264 residues) expressed in Escherichia coli BL21 (DE3) at 1 to 250 uM measured for 20 mins in presence of varying concentration of SAM by Lineweaver-Burk plot analysis
[7] = biological target: T4, Protein arginine N-methyltransferase 7 (Homo sapiens, UniProt Q9NVM4); experiment: Inhibition of PRMT7 (unknown origin) using [3H]-SAM as co-factor by scintillation proximity assay
T4 sequence (Q9NVM4 whole entry): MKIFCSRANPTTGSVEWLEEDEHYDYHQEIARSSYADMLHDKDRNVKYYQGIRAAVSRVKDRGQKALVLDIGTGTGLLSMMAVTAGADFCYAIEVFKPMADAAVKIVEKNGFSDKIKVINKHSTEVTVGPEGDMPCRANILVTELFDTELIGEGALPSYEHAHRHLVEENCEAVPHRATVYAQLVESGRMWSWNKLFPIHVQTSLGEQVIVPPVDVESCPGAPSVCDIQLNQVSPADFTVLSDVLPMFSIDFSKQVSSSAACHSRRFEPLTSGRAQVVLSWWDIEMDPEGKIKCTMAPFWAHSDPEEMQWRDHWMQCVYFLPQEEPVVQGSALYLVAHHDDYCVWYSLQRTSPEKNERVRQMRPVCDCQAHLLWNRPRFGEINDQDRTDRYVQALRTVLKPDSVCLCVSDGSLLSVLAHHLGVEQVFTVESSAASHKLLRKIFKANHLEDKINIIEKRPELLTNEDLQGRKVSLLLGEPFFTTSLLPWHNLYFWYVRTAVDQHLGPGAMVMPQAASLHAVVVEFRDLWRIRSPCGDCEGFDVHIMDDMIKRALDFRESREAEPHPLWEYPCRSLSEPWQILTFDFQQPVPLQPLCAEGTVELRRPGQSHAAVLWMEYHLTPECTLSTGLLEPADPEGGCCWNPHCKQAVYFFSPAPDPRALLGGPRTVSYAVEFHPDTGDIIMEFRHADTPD

[8] = biological target: T3, Nicotinamide N-methyltransferase (Homo sapiens); experiment: Nonompetitive inhibition of human NNMT (1 to 264 residues) expressed in Escherichia coli BL21 (DE3) at 1 to 250 uM measured for 20 mins in presence of varying concentration of nicotinamide by Lineweaver-Burk plot analysis
[9] = biological target: T3, Nicotinamide N-methyltransferase (Homo sapiens); remark: listed apart in the source
Description: Binding affinity to human NNMT (1 to 264 residues) expressed in Escherichia coli BL21 (DE3) assessed as change in entropy by isothermal titration calorimetric method

[10] = biological target: T1, Nicotinamide N-methyltransferase; experiment: Binding affinity to human NNMT (1 to 264 residues) expressed in Escherichia coli BL21 (DE3) by isothermal titration calorimetric method

Sequence of Histone-lysine N-methyltransferase, H3 lysine-79 specific (Q8TEK3 whole entry): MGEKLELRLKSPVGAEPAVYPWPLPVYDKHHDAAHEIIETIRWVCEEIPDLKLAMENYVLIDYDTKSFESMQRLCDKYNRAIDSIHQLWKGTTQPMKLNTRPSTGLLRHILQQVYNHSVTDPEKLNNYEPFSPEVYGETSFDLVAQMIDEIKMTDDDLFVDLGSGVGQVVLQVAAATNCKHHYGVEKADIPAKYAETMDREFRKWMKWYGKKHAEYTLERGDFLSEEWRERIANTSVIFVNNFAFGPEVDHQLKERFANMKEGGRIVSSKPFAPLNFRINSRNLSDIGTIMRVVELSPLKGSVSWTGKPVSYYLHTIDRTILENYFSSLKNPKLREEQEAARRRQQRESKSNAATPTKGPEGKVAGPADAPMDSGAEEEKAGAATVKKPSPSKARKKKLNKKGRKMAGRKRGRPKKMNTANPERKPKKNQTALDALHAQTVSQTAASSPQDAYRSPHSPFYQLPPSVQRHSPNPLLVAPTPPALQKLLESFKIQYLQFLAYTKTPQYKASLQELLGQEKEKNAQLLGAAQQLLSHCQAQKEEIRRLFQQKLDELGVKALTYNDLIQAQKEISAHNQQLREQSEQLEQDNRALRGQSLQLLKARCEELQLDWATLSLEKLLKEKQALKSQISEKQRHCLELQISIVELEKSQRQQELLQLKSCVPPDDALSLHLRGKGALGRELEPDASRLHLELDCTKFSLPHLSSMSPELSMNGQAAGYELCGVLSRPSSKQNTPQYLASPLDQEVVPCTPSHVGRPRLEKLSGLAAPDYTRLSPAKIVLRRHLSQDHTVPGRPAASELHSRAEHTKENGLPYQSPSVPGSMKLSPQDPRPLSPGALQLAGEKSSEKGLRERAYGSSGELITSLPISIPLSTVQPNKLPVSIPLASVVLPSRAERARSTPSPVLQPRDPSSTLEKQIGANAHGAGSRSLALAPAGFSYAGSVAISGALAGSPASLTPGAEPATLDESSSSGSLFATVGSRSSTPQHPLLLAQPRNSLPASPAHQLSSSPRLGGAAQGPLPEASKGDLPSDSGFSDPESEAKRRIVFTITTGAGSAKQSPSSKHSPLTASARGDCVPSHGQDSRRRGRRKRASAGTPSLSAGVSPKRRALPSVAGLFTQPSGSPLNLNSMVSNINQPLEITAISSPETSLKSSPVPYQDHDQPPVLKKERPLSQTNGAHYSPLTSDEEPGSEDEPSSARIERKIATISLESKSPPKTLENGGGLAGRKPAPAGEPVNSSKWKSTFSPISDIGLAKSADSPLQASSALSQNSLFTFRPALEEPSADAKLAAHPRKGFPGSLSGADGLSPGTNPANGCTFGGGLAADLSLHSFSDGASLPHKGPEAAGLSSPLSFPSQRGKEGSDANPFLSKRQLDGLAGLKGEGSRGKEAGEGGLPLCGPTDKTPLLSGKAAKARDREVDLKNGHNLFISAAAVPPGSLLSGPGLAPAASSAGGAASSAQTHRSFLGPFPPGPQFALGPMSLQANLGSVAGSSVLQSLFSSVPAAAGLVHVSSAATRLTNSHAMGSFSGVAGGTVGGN
Sequence of N-lysine methyltransferase SMYD2 (Q9NRG4 whole entry, the tested form may be a part): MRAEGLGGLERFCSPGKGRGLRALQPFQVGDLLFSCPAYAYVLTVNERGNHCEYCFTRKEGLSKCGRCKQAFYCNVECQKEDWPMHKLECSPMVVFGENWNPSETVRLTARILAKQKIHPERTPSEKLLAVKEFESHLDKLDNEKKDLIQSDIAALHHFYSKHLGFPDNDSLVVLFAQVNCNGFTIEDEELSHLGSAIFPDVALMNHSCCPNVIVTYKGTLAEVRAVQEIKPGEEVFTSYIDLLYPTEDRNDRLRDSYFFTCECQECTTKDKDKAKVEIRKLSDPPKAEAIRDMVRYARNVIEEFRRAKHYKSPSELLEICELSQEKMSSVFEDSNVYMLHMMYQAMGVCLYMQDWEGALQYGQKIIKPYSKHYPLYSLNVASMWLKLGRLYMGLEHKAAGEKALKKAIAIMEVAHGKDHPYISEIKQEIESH

| SMILES | IC50 [1] [µM] | IC50 [2] [µM] | IC50 [3] [µM] | IC50 [4] [µM] | deltaH [5] [kcal/mol] | inhibition [6] | IC50 [7] [µM] | inhibition [8] | deltaS [9] [cal/mol/deg] | Kd [10] [µM] |
| --- | --- | --- | --- | --- | --- | --- | --- | --- | --- | --- |
| NC(=O)c1cccc(CCN(CCC[C@H](N)C(=O)O)C[C@H]2O[C@@H](n3cnc4c(N)ncnc43)[C@H](O)[C@@H]2O)c1 | 62 | 14 | 1.3 | 40 | -4.6 | Active | 20 | Active | 10 | 2.7 |
| NC(=O)c1cccc(CCN(CC[C@H](N)C(=O)O)C[C@H]2O[C@@H](n3cnc4c(N)ncnc43)[C@H](O)[C@@H]2O)c1 | – | 160 | – | – | -2.5 | – | – | – | 11.4 | 42.8 |
